Assays:
Format in all cases: cell-based
Gal-4 hPPARγ = target: T1, Gal-4 hPPARγ (Homo sapiens, UniProt P37231); experiment: Gal4-hPPARγ transient transfection reporter assay in Cos cells; details: luciferase reporter, 24 hours with compound, scale 1-5, read-out: Gal-4 hPPAR γ EC50 (scaled number)
T1 construct: Plasmids pGal4-hPPARα, pGal4-hPPARγ, pGal4-hPPARδ and pG5-TK-pGL3 were constructed as previously described by Staels, Bart, et al., Nature 1998 Jun; 25
T1 sequence (P37231 238-505 limits assumed): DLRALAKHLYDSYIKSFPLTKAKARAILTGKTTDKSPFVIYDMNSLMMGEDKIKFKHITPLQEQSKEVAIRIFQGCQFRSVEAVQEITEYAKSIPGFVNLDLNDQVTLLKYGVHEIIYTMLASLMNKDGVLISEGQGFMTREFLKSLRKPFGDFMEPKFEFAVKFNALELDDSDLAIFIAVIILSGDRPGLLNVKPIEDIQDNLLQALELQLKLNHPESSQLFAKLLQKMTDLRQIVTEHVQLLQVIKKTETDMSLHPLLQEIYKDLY
Protocol: (§1) Construction of recombinant plasmids. Plasmids pGal4-hPPARα, pGal4-hPPARγ, pGal4-hPPARδ and pG5-TK-pGL3 were constructed as previously described by Staels, Bart, et al., Nature 1998 Jun. 25; 393 (6687): 790-793, by Staels (Institut Pasteur de Lille, FR).
(§2) Transient transfection assays. Cos cells were seeded in 60-mm dishes at a density of 5.5×10^5 cells/dish in Dulbecco's modified Eagle's medium (DMEM) supplemented with 10% fetal calf serum (FCS) and incubated at 37° C. for 24 hours before transfection. Cells were transfected in Opti-MEM (Gibco; Invitrogen, Carlsbad, Calif.) without FCS for 3 hours at 37° C., using polyethylenimine, with reporter and expression plasmids. The plasmid pBluescript (Stratagene, La Jolla, Calif.) was used as carrier DNA to set the final amount of DNA to 5.5 μg/dish. The pCMV-b-galactosidase expression plasmid was cotransfected as a control for transfection efficiency. Transfection was stopped by the addition of DMEM supplemented with 10% FCS, and cells were then incubated at 37° C. After 16 hours, cells were trypsinized and seeded in 96-well plates at the density of 2×10^4 cells/well and incubated for 6 hours in 10% FCS-containing DMEM. Cells were then incubated for 24 hours in DMEM containing 0.2% FCS and increasing concentrations of the compound tested or vehicle (DMSO). At the end of the experiment, cells were washed once with ice-cold PBS, lysed and the luciferase and b-galactosidase assays were performed in a luminometer and spectrophotomer. Transfection efficiencies were normalized with the b-galactosidase activity assay. Half-maximal effective concentration (EC50) was estimated using Prism software (GraphPad). All transfection experiments were performed at least three times.
(§3) In the following tables, proprietary compound EC50 values for hPPAR α, β, δ and γ are shown. The EC50 value is the concentration of a drug that induces a response halfway between the baseline and maximum, and is commonly used as a measure of drug potency. EC50 values are reported on a scale of 1 through 5, wherein the value scale is defined for each receptor as follows: […]

Gal-4 hPPARα = target: T2, Gal-4 hPPARα (Homo sapiens, UniProt Q07869); experiment: Gal4-hPPARα transient transfection reporter assay in Cos cells; details: luciferase reporter, 24 hours with compound, scale 1-5, read-out: Gal-4 hPPAR α EC50 (scaled number)
T2 construct: Plasmids pGal4-hPPARα, pGal4-hPPARγ, pGal4-hPPARδ and pG5-TK-pGL3 were constructed as previously described by Staels, Bart, et al., Nature 1998 Jun; 25
T2 sequence (Q07869 200-468 limits assumed): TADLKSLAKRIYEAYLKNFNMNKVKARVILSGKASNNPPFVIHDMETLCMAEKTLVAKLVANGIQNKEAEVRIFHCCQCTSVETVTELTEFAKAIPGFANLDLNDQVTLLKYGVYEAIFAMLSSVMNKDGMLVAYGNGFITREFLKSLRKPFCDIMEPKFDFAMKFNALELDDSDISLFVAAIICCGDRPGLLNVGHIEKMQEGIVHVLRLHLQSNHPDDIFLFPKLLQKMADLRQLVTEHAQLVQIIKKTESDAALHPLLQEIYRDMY
Protocol: as §1, §2, §3

Gal-4 hPPARβ/δ = target: T3, Gal-4 hPPARβ/δ (Homo sapiens, UniProt Q03181); experiment: Gal4-hPPARδ transient transfection reporter assay in Cos cells; details: luciferase reporter, 24 hours with compound, scale 1-5, read-out: Gal-4 hPPAR β/δ EC50 (scaled number)
T3 construct: Plasmids pGal4-hPPARα, pGal4-hPPARγ, pGal4-hPPARδ and pG5-TK-pGL3 were constructed as previously described by Staels, Bart, et al., Nature 1998 Jun; 25
T3 sequence (Q03181 171-441 limits assumed): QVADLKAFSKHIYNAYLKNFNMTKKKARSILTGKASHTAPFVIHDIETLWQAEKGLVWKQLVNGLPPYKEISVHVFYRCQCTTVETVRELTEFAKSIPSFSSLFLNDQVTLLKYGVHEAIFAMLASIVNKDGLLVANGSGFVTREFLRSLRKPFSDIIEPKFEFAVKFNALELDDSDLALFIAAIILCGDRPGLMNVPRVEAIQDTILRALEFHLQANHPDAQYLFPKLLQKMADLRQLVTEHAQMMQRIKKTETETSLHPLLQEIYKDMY
Protocol: as §1, §2, §3

EC50 (Gal-4 hPPARγ) [nM] | EC50 (Gal-4 hPPARα) [nM] | EC50 (Gal-4 hPPARβ/δ) [nM] | SMILES
> 1000 | 1 to 50 | > 1000 | CCn1c(COC(=O)c2ccc(SC(C)(C)C(=O)O)cc2)nn(Cc2ccc(C(C)(C)C)cc2)c1=O [Compound 195, 2-(4-(((1-(4-tert-butylbenzyl)-4-ethyl-5-oxo-4,5-dihydro-1H-1,2,4-triazol-3-yl)methoxy)carbonyl)phenylthio)-2-methylpropanoic acid]
201 to 999 | 1 to 50 | > 1000 | CC(C)(Sc1ccc(C(=O)OCc2cnn(Cc3ccc(C(C)(C)C)cc3)c2)cc1)C(=O)O [Compound 6, 2-(4-(((1-(4-tert-butylbenzyl)-1H-pyrazol-4-yl)methoxy)carbonyl)phenylthio)-2-methylpropanoic acid]
> 1000 | 1 to 50 | > 1000 | C[C@@H](OC(=O)c1ccc(SC(C)(C)C(=O)O)cc1)c1cn(Cc2cc(C(F)(F)F)cc(C(F)(F)F)c2)nn1 [Compound 140, 4-(1-Carboxy-1-methyl-ethylsulfanyl)-benzoic acid (R)-1-[1-(3,5-bis-trifluoromethyl-benzyl)-1H-1,2,3-triazol-4-yl]-ethyl ester]
> 1000 | 51 to 200 | > 1000 | COc1ccc(Cn2cc(COC(=O)c3ccc(SC(C)(C)C(=O)O)cc3)cn2)cc1 [Compound 8, 2-(4-(((1-(4-methoxybenzyl)-1H-pyrazol-4-yl)methoxy)carbonyl)phenylthio)-2-methylpropanoic acid]
> 1000 | 201 to 999 | > 1000 | Cc1ccc(Cn2cc(CCOC(=O)c3ccc(SC(C)(C)C(=O)O)cc3)nn2)cc1 [Compound 145, 4-(1-Carboxy-1-methyl-ethylsulfanyl)-benzoic acid 2-[1-(4-methyl-benzyl)-1H-1,2,3-triazol-4-yl]-ethyl ester]
> 1000 | 201 to 999 | > 1000 | Cc1ccc(Cn2cc([C@H](C)OC(=O)c3ccc(SC(C)(C)C(=O)O)cc3)nn2)cc1 [Compound 85, (S)-2-methyl-2-(4-((1-(1-(4-methylbenzyl)-1H-1,2,3-triazol-4-yl)ethoxy)carbonyl)phenylthio)propanoic acid]
> 1000 | 1 to 50 | > 1000 | CCCn1c(COC(=O)c2ccc(SC(C)(C)C(=O)O)cc2)nn(Cc2ccc(Br)cc2)c1=O [Compound 164, 2-(4-(((1-(4-bromobenzyl)-5-oxo-4-propyl-4,5-dihydro-1H-1,2,4-triazol-3-yl)methoxy)carbonyl)phenylthio)-2-methylpropanoic acid]

The remaining lines, values behind:

SMILES | EC50 (Gal-4 hPPARγ) [nM] | EC50 (Gal-4 hPPARα) [nM] | EC50 (Gal-4 hPPARβ/δ) [nM]
CC(C)(Oc1ccc(C(=O)OCc2cnn(Cc3ccc4c(c3)C(C)(C)CCC4(C)C)c2)cc1)C(=O)O [Compound 28] | > 1000 | 201 to 999 | > 1000
CCCn1c(COC(=O)c2ccc(SC(C)(C)C(=O)O)cc2)nn(Cc2cc(F)cc(F)c2)c1=O [Compound 218, 2-(4-(((1-(3,5-difluorobenzyl)-5-oxo-4-propyl-4,5-dihydro-1H-1,2,4-triazol-3-yl)methoxy)carbonyl)phenylthio)-2-methylpropanoic acid] | > 1000 | 51 to 200 | > 1000
CCCCCCn1c(COC(=O)c2ccc(OC(C)(C)C(=O)O)cc2)nn(Cc2ccc(C(OC)(C(F)(F)F)C(F)(F)F)cc2)c1=O [Compound 202, 2-(4-(((1-(4-(1,1,1,3,3,3-hexafluoro-2-methoxypropan-2-yl)benzyl)-4-hexyl-5-oxo-4,5-dihydro-1H-1,2,4-triazol-3-yl)methoxy)carbonyl)phenoxy)-2-methylpropanoic acid] | > 1000 | 1 to 50 | > 1000
CCCCCCn1c(COC(=O)c2ccc(OC(C)(C)C(=O)O)cc2)nn(Cc2ccc(C(F)(C(F)(F)F)C(F)(F)F)cc2)c1=O [Compound 204, 2-(4-(((4-hexyl-5-oxo-1-(4-(perfluoropropan-2-yl)benzyl)-4,5-dihydro-1H-1,2,4-triazol-3-yl)methoxy)carbonyl)phenoxy)-2-methylpropanoic acid] | > 1000 | 51 to 200 | > 1000
